Key:
[1] = Anti-inflammatory activity: edema test provoked by carraghenin; assay type: in vivo; details: Rattus norvegicus; male rats 130 to 150 g, oral, simultaneous with 0.05 ml of 1% carraghenin in rear paw; paw volume at 2,4,6,8 and 24 hours; read-out: DA50 (dose which reduced the edema by 50%)
Procedure: The anti-inflammatory activity was determined by the edema test provoked by carraghenin in male rats weighing about 130 to 150 g which received 0.05 ml of sterile suspension of 1% carraghenin into the tibiotarsien articulation of the rear paw. Simultaneously the test product in a suspension of 0.25% carboxymethyl cellulose and 0.02% of Tween was orally administered. The volume of the paw was measured before the test and then 2,4,6,8 and 24 hours later. The intensity of inflammation was maximum at 4 to 6 hours after the injection of carraghenin and the differences in paw volume of controls and treated animals were evidence of anti-inflammatory action. The DA50 dose which is that which reduced the edema by 50% was 15 and 12 mg/kg for the products of Examples 2 and 10 respectively.

[2] = Analgesic activity: acetic acid-provoked stretching test based on Koster et al; assay type: in vivo; details: Mus musculus; mice, oral, 30 minutes before intraperitoneal acetic acid (1% solution, 0.01 ml/g); fasted 24 hours; 15 minute observation; read-out: DA50 (dose which diminished the number of stretchings by 50% as compared to the controls)
Procedure: The test was based on that of Koster et al [Fed. Proc., Vol. 1B (1959), p. 412] in which mice received an intraperitoneal injection of acetic acid to provoke repeated stretching and twisting movements which persist for more than 6 hours. An analgesic prevents or reduces this syndrome which is considered to be an exteriorization of a diffuse abdominal pain. A 1% solution of acetic acid in water was used and the dose […] the syndrome under these conditions was 0.01 ml/g or 100 mg/kg of acetic acid.
The test compound was orally administered to the mice 30 minutes before the acetic acid injection and the mice had been fasting for the previous 24 hours. The stretchings were counted for each mouse for a 15 minute observation period after the acetic acid injection and the dose which diminished the number of stretchings by 50% as compared to the controls (DA50) was 1.2 and 0.3 mg/kg for the compounds of Example 2 and 10 respectively.

Work on `CC(O)c1nc2c(C(F)(F)F)cccc2c(O)c1C(=O)Nc1nccs1` (stereo not shown) [Example 2, 4-hydroxy-2-(1-hydroxyethyl)-N-(2-thiazolyl)-8-trifluoromethyl-3-quinoline-carboxamide] yielded an ED50 [1] of 15 mg/kg and an ED50 [2] of 1.2 mg/kg.
In the case of `CCC(O)c1nc2c(C(F)(F)F)cccc2c(O)c1C(=O)Nc1nccs1` (stereo not shown) [Example 10, 4-hydroxy-2-(1-hydroxy-propyl)-N-(2-thiazolyl)-8-trifluoromethyl-3-quinoline-carboxamide], the ED50 [1] is reported as 12 mg/kg and the ED50 [2] is reported as 0.3 mg/kg.

Source: patent US4596875A, “Preparation of amides of 4-hydroxy-3-quinoline-carboxylic acid” (Roussel Uclaf, priority 1982, dated 1986)
